Results from the supplement of paper PMC8612539.
Converted amounts (≈) assume the structure as drawn.

Tested on: Escherichia coli
Assay: minimum inhibitory concentration (MIC)
Method: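 Broth microdilution MIC (Sensititre BOPO7F bovine plate, CLSI methods) of 19 antimicrobials against field isolates of P. multocida, M. haemolytica, H. somni (deep nasopharyngeal swabs) and E. coli, Enterococcus spp. (rectal swabs) from weaned dairy heifers. Incubation 16-24 h at 35 C. MIC is the lowest concentration preventing visible growth. Values with <= or > lie at the tested range limits. Trimethoprim-sulfamethoxazole is given as the trimethoprim component of a 1:19 mixture.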

CC1(C)S[C@@H]2[C@H](NC(=O)[C@H](N)c3ccccc3)C(=O)N2[C@H]1C(=O)O [Ampicillin]
Conditions	minimum inhibitory concentration [µg/mL]
isolate (source animal id): 8	4 (≈ 11.4 µM)
isolate (source animal id): 9	> 16
isolate (source animal id): 10	2 (≈ 5.72 µM)
isolate (source animal id): 11	4 (≈ 11.4 µM)
isolate (source animal id): 12	> 16
isolate (source animal id): 13	> 16
isolate (source animal id): 14	> 16
isolate (source animal id): 15	2 (≈ 5.72 µM)
isolate (source animal id): 16	4 (≈ 11.4 µM)
isolate (source animal id): 98	4 (≈ 11.4 µM)
isolate (source animal id): 99	4 (≈ 11.4 µM)
isolate (source animal id): 100	2 (≈ 5.72 µM)
isolate (source animal id): 101	1 (≈ 2.86 µM)
isolate (source animal id): 102	2 (≈ 5.72 µM)
isolate (source animal id): 103	> 16
isolate (source animal id): 104	4 (≈ 11.4 µM)
isolate (source animal id): 105	4 (≈ 11.4 µM)
isolate (source animal id): 106	2 (≈ 5.72 µM)
isolate (source animal id): 107	2 (≈ 5.72 µM)
isolate (source animal id): 108	4 (≈ 11.4 µM)
isolate (source animal id): 109	2 (≈ 5.72 µM)
isolate (source animal id): 110	4 (≈ 11.4 µM)
isolate (source animal id): 111	2 (≈ 5.72 µM)
isolate (source animal id): 112	2 (≈ 5.72 µM)
isolate (source animal id): 113	4 (≈ 11.4 µM)
isolate (source animal id): 114	4 (≈ 11.4 µM)
isolate (source animal id): 115	> 16
isolate (source animal id): 116	2 (≈ 5.72 µM)
isolate (source animal id): 117	2 (≈ 5.72 µM)
isolate (source animal id): 118	4 (≈ 11.4 µM)
isolate (source animal id): 119	8 (≈ 22.9 µM)
isolate (source animal id): 120	> 16
isolate (source animal id): 121	2 (≈ 5.72 µM)
isolate (source animal id): 122	1 (≈ 2.86 µM)
isolate (source animal id): 123	2 (≈ 5.72 µM)
isolate (source animal id): 124	4 (≈ 11.4 µM)
isolate (source animal id): 125	2 (≈ 5.72 µM)
isolate (source animal id): 126	8 (≈ 22.9 µM)
isolate (source animal id): 127	2 (≈ 5.72 µM)
isolate (source animal id): 128	> 16
isolate (source animal id): 129	4 (≈ 11.4 µM)
isolate (source animal id): 130	4 (≈ 11.4 µM)
isolate (source animal id): 131	2 (≈ 5.72 µM)
isolate (source animal id): 132	> 16
isolate (source animal id): 133	4 (≈ 11.4 µM)
isolate (source animal id): 134	4 (≈ 11.4 µM)
isolate (source animal id): 135	2 (≈ 5.72 µM)
isolate (source animal id): 136	4 (≈ 11.4 µM)
isolate (source animal id): 137	4 (≈ 11.4 µM)
isolate (source animal id): 138	4 (≈ 11.4 µM)
isolate (source animal id): 139	1 (≈ 2.86 µM)
isolate (source animal id): 140	4 (≈ 11.4 µM)
isolate (source animal id): 141	4 (≈ 11.4 µM)
isolate (source animal id): 142	4 (≈ 11.4 µM)
isolate (source animal id): 143	> 16
isolate (source animal id): 144	> 16
isolate (source animal id): 145	8 (≈ 22.9 µM)
isolate (source animal id): 146	2 (≈ 5.72 µM)
isolate (source animal id): 147	> 16
isolate (source animal id): 148	2 (≈ 5.72 µM)
isolate (source animal id): 149	2 (≈ 5.72 µM)
isolate (source animal id): 150	4 (≈ 11.4 µM)
isolate (source animal id): 151	1 (≈ 2.86 µM)
isolate (source animal id): 152	2 (≈ 5.72 µM)
isolate (source animal id): 153	> 16
isolate (source animal id): 154	4 (≈ 11.4 µM)
isolate (source animal id): 155	2 (≈ 5.72 µM)
isolate (source animal id): 156	> 16
isolate (source animal id): 157	4 (≈ 11.4 µM)
isolate (source animal id): 158	4 (≈ 11.4 µM)
isolate (source animal id): 159	2 (≈ 5.72 µM)
isolate (source animal id): 160	4 (≈ 11.4 µM)
isolate (source animal id): 161	2 (≈ 5.72 µM)
isolate (source animal id): 162	> 16
isolate (source animal id): 163	4 (≈ 11.4 µM)
isolate (source animal id): 164	4 (≈ 11.4 µM)
isolate (source animal id): 165	2 (≈ 5.72 µM)
isolate (source animal id): 166	2 (≈ 5.72 µM)
isolate (source animal id): 167	4 (≈ 11.4 µM)
isolate (source animal id): 168	2 (≈ 5.72 µM)
isolate (source animal id): 169	4 (≈ 11.4 µM)
isolate (source animal id): 170	4 (≈ 11.4 µM)
isolate (source animal id): 171	4 (≈ 11.4 µM)
isolate (source animal id): 172	2 (≈ 5.72 µM)
isolate (source animal id): 173	> 16
isolate (source animal id): 174	> 16
isolate (source animal id): 175	4 (≈ 11.4 µM)
isolate (source animal id): 176	> 16
isolate (source animal id): 177	> 16
isolate (source animal id): 178	4 (≈ 11.4 µM)
isolate (source animal id): 179	4 (≈ 11.4 µM)
isolate (source animal id): 180	4 (≈ 11.4 µM)
isolate (source animal id): 181	2 (≈ 5.72 µM)
isolate (source animal id): 182	2 (≈ 5.72 µM)
isolate (source animal id): 183	4 (≈ 11.4 µM)
isolate (source animal id): 184	4 (≈ 11.4 µM)
isolate (source animal id): 185	4 (≈ 11.4 µM)
isolate (source animal id): 186	4 (≈ 11.4 µM)
isolate (source animal id): 187	> 16
isolate (source animal id): 188	> 16
